Values quoted from earlier work in publication PMC8086892 (Peptide science (Hoboken, N.J.), 2020).

What was measured:
[1] = ref Orivel et al. [27]
[2] = ref Orivel et al. [27]; remark: listed apart in the source

Substance: Ponericin L2
- Antimicrobial activity [1]: broad spectrum antimicrobial activity
- Hemolytic activity [2]: no detectable hemolytic activity
